In patent US20050085554A1, “Methods of treating disease through the administration of a manzamine analog or derivative” (priority 2003, published 2005):
≈ marks a conversion by molar mass, not a printed value.

Columns and labels:
[1] = test system: Plasmodium falciparum (D6 clone); experiment: Antimalarial activity in vitro, D6 clone; type: cell-based
[2] = test system: Staphylococcus aureus; experiment: Antibacterial activity against S. aureus; type: cell-based; conditions: for Antibacterial IC50 S. aureus: T5, NA = not active
[3] = test system: Candida albicans; experiment: Antifungal activity against Candida albicans; type: cell-based
[4] = test system: Mycobacterium tuberculosis H37Rv; experiment: In vitro antimycobacterial activity (Microplate Alamar Blue Assay), MIC; type: cell-based; conditions: for MIC against Mycobacterium tuberculosis (Mtb): rifampin = positive control; for Mycobacterium Tuberculosis (H37Rv) MIC: T4
[5] = test system: P. falciparum (chlorine-resistant W2 clone); experiment: Antimalarial activity in vitro, W2 clone; type: cell-based, Plasmodium falciparum
[6] = test system: Aspergillus fumigatus; experiment: Antifungal activity against Aspergillus fumigatus; type: cell-based; conditions: T6, footnote a: the lowest concentration that significantly inhibits growth
[7] = test system: Mycobacterium intracellulare; experiment: Activity against M. intracellulare; type: cell-based; conditions: for IC50 M. intracellulare: T5, NA = not active
[8] = test system: methicillin-resistant Staphylococcus aureus; experiment: Antibacterial activity against MRS; type: cell-based; conditions: for Antibacterial IC50 MRS: T5, NA = not active
[9] = test system: Cryptococcus neoformans; experiment: Antifungal activity against Cryptococcus neoformans; type: cell-based; conditions: for Antifungal IC50 C. neoformans: T5, NA = not active
[10] = test system: Leishmania donovani; experiment: Antileishmanial activity in vitro; type: cell-based
[11] = test system: human lung carcinoma A-549
[12] = test system: human colon carcinoma H-116
[13] = test system: HIV-1LAV; experiment: Anti-HIV-1 activity in PBM cells; type: cell-based, human immunodeficiency virus (HIV-1)
Experimental: Anti-HIV-1 activity was determined in PBM cells as described previously. See, Stock solutions (20 or 40 mM) of the compounds were prepared in sterile DMSO and then diluted to the desired concentration in growth medium. Cells were infected with the prototype HIV-1LAV at a multiplicity of infection of 0.1. Details on the infection of cells and assessment of antiviral effects was described previously. See, Schinazi, R. F.; McMillan, A.; Cannon, D.; Mathis, R.; Lloyd, R. M.; Peck, A.; Sommadossi, J.-P.; Clair, M. S.; Wilson, J.; Furman, P. A.; Painter G.; Choi, W.-B.; Liotta, D. C. Antimicrob. Agents Chemother. 1992, 36, 2423-2431 and Schinazi, R. F.; Sommadossi, J.-P.; Saalmann, V.; Cannon, D. L.; Xie, M.-Y.; Hart, G. C.; Smith, G. A.; Hahn, E. F. Antimicrob. Agents Chemother. 1990, 34, 1061-1067.

[14] = test system: Vero cells; experiment: In vitro cytotoxicity to mammalian cells (Vero)
[15] = T4, NC = No Cytotoxicity (concentration: 4760 ng/ml)

## C1=C/[C@@H]2[C@H]3CCCC[C@@H]3C[C@@H]2NCCCNC2C[C@H]3CCCC[C@@H]3[C@H]2/C=C/1 (single isomer, unassigned; (-)) [Papuamine, (−)-papuamine]
[1]; Plasmodium falciparum, D6, T6
  IC50: 0.15 µg/mL (≈ 0.407 µM)
[2]; Staphylococcus aureus, T6
  MIC: 5 µg/mL (≈ 13.6 µM)
[2]; Staphylococcus aureus, T6, read-out: Staphylococcus aureus IC50
  IC50: 2.5 µg/mL (≈ 6.78 µM)
[3]; Candida albicans, T6
  IC50: 1.5 µg/mL (≈ 4.07 µM)
[3]; Candida albicans, T6, MIC: lowest concentration that allows no detectable growth
  MIC: 5 µg/mL (≈ 13.6 µM)
[4]; Mycobacterium tuberculosis, H37RV, T6, read-out: Mycobacterium tuberculosis MIC
  MIC: 0.4 µg/mL (≈ 1.09 µM)
[5]; Plasmodium falciparum, W2, T6, read-out: P. falciparum (W2 clone) IC50
  IC50: 0.34 µg/mL (≈ 0.922 µM)
[6]; Aspergillus fumigatus
  MIC: 1.25 µg/mL (≈ 3.39 µM)
[7]; Mycobacterium intracellulare, T6, read-out: Mycobacterium intracellulare IC50
  IC50: 4 µg/mL (≈ 10.9 µM)
[8]; Staphylococcus aureus, T6
  MIC: 5 µg/mL (≈ 13.6 µM)
[8]; T6, MRS: methicillin-resistant Staphylococcus aureus, read-out: MRS IC50
  IC50: 2.5 µg/mL (≈ 6.78 µM)
[9]; Cryptococcus neoformans, lowest concentration that allows no detectable growth
  MIC: 0.63 µg/mL (≈ 1.71 µM)
[9]; Cryptococcus neoformans, read-out: Cryptococcus neoformans IC50
  IC50: 0.35 µg/mL (≈ 0.95 µM)

## C[C@@H]1[C@H](O)[C@@H](C)/C=C/C=C/C=C/C=C/C=C/C=C/C=C/[C@H](O[C@@H]2O[C@H](C)[C@@H](O)[C@H](N)[C@@H]2O)C[C@@H]2O[C@](O)(C[C@@H](O)C[C@@H](O)[C@H](O)CC[C@@H](O)C[C@@H](O)CC(=O)O[C@H]1C)C[C@H](O)[C@H]2C(=O)O [Amphotericin B, reference compound]
[3]; T6
  Candida albicans IC50: 0.10 µg/mL
[3]; T6, MIC: lowest concentration that allows no detectable growth
  Candida albicans MIC: 0.63 µg/mL
[10]; T4
  Leishmania donovani IC 50: 0.06 µg/mL
  Leishmania donovani IC 90: 0.15 µg/mL
[6]
  Aspergillus fumigatus MIC: 0.63^a μg/mL
[9]
  Cryptococcus neoformans IC50: 0.25 µg/mL
  Antifungal IC50 C. neoformans: 0.15 µg/mL
[9]; lowest concentration that allows no detectable growth
  Cryptococcus neoformans MIC: 0.63 µg/mL

## CC(=O)C[C@H]1C[C@H]2[C@H]([C@@H]3c4[nH]c5ccccc5c4CCN13)[C@H](O)C13CC/C=C\CCCCN1CC21C2CCCCCCCN2[C@H]13 (some centres unmarked) [Manadomanzamine A]
[11]
  IC50 against human lung carcinoma A-549: 2.5 µg/mL (≈ 4.09 µM)
[3]
  IC50 against the fungus Candida albicans: 20 µg/mL (≈ 32.7 µM)
[12]
  IC50 against human colon carcinoma H-116: 5.0 µg/mL (≈ 8.18 µM)
[4]
  MIC against Mycobacterium tuberculosis (Mtb): 1.86 µg/mL (≈ 3.04 µM)
[13]
  EC50 against human immunodeficiency virus (HIV-1): 6.96 µg/mL (≈ 11.4 µM)

## CC(=O)C[C@@H]1C[C@H]2[C@H]([C@@H]3c4[nH]c5ccccc5c4CCN13)[C@H](O)C13CC/C=C\CCCCN1CC21C2CCCCCCCN2[C@H]13 (some centres unmarked) [Manadomanzamine B]
[12]
  IC50 against human colon carcinoma H-116: 5.0 µg/mL (≈ 8.18 µM)
[4]
  MIC against Mycobacterium tuberculosis (Mtb): 1.53 µg/mL (≈ 2.5 µM)
[13]
  EC50 against human immunodeficiency virus (HIV-1): 16.5 µg/mL (≈ 27 µM)
[9]
  IC50 against the fungus Cryptococcus neoformans: 3.5 µg/mL (≈ 5.73 µM)

## O[C@]12C=C(c3nccc4c3[nH]c3ccccc34)[C@@H]3CCN(CCCC/C=C\CC1)C[C@@]31C[C@@H]3/C=C\CCCCN3[C@H]12 [Manzamine A]
[1]; T4, NA = not active
  Plasmodium falciparum (D6 clone) IC 50: 0.0045 µg/mL
[1]; T7
  Plasmodium falciparum (D6 clone) IC 50: 0.0045 µg/mL
[14]; [15]
  Cytotoxicity (Vero): 1200 ng/mL
[14]; T7, NC not defined in this table
  Cytotoxicity (Vero): 1200 ng/mL
[2]
  Antibacterial IC50 S. aureus: 0.5 µg/mL
[4]
  Mycobacterium Tuberculosis (H37Rv) MIC: 1.53 µg/mL
[10]; T4
  Leishmania donovani IC 50: 0.9 µg/mL
  Leishmania donovani IC 90: 1.8 µg/mL
[10]; T7
  Leishmania donovani IC 50: 0.9 µg/mL
  Leishmania donovani IC 90: 1.8 µg/mL
[13]; T5
  EC50: 4.2 µM
[5]; T4, NA = not active
  P. falciparum (chlorine-resistant W2 clone) IC 50: 0.008 µg/mL
[5]; T7
  P. falciparum (chlorine-resistant W2 clone) IC 50: 0.008 µg/mL
[7]
  IC50 M. intracellulare: 0.35 µg/mL (≈ 0.638 µM)
[7]; T7, first value of a cell '2.0/5.0'
  M. intracellulare IC50: 1.53 µg/mL
[8]
  Antibacterial IC50 MRS: 0.7 µg/mL
[9]
  Antifungal IC50 C. neoformans: 3.0 µg/mL

## Manzamine A N-oxide
[1]; T4, NA = not active
  Plasmodium falciparum (D6 clone) IC 50: 0.011 µg/mL
[14]; [15]
  Cytotoxicity (Vero): 420 ng/mL
[2]
  Antibacterial IC50 S. aureus: 0.5 µg/mL
[4]
  Mycobacterium Tuberculosis (H37Rv) MIC: 3.9 µg/mL
[10]; T4
  Leishmania donovani IC 50: 1.1 µg/mL
  Leishmania donovani IC 90: 3.8 µg/mL
[5]; T4, NA = not active
  P. falciparum (chlorine-resistant W2 clone) IC 50: 0.013 µg/mL
[7]
  IC50 M. intracellulare: 0.2 µg/mL
[8]
  Antibacterial IC50 MRS: 0.35 µg/mL
[9]
  Antifungal IC50 C. neoformans: 1.0 µg/mL

## xestomanzamine A
[11]
  Cytotoxicity IC50 A-594: >5 µg/mL
[12]
  Cytotoxicity IC50 H-116: >5 µg/mL
[4]; T1, no unit in table
  Anti-TB MIC: 14.1 µg/mL
[13]
  EC50 against human immunodeficiency virus (HIV-1): 11.2 µg/mL
[9]
  IC50 against the fungus Cryptococcus neoformans: 6.0 µg/mL
